Assay results as given in patent US20250235456A1, “METHODS OF USE FOR AZA-QUINAZOLINE COMPOUNDS” (Iambic Therapeutics, Inc., priority 2024, published 2025).

Key:
Format in all cases: biochemical
[1] = molecular target: CDK1/Cyclin B1 (Homo sapiens (Human), UniProt P06493); assay: CDK1/Cyclin B1 ADP-Glo Kinase Assay
Description: CDK1/Cyclin B1 ADP-Glo Kinase Assay
(§1) The purpose of CDK1/Cyclin Bi assay is to evaluate the inhibition (% inhibition and IC50 values) of small molecule inhibitors by using a Luminescent based ADP-Glo assay. CDK1/Cyclin B1 catalyzes the production of ADP from ATP. ADP-Glo assay monitors ADP producing biochemical reactions. ADP-Glo is performed in 2 steps upon completion of kinase reaction: a combined termination of kinase reaction and depletion of remaining ATP in the first step, and conversion of generated ADP to ATP and the newly produced ATP to light output using luciferase/luciferin reaction in the second step. The luminescent signal generated is proportional to the ADP concentration produced and is correlated with the kinase activity. CDK1/Cyclin B1 was purchased from Carna (Cat 04-102). […] The assay was initiated with the addition of ATP-containing substrate solution, following a 30-minute pre-incubation of enzyme and inhibitor at room temperature in the reaction mixture. The reaction was stopped after 90 minutes at room temperature by the addition of 10 μL of ADP-GLO Reagent. After a 90 minute incubation, 20 μL of Kinase Detection Reagent was added. Samples were incubated for 40 minutes, after which plate well luminescence was measured on a Envision microplate reader. The IC50 determinations were made from a plot of the fractional velocity as a function of inhibitor concentration fit to the 4 parameters IC50 equation.

[2] = molecular target: CDK2/Cyclin E1 full length (Homo sapiens (Human), UniProt P24941); assay: CDK2/Cyclin E1 Full length ADP-Glo Kinase Assay; settings: read-out: CDK2/CyclinE1 IC50
Description: CDK2/Cyclin E1 Full length ADP-Glo Kinase Assay
as §1, with “of CDK2/Cyclin El” for “of CDK1/Cyclin Bi”, “assay. CDK2/Cyclin El full length” for “assay. CDK1/Cyclin B1”, “activity. CDK2/Cyclin E1” for “activity. CDK1/Cyclin B1”, “from Eurofins” for “from Carna”, “(Cat 14-475M).” for “(Cat 04-102).”, “20 uL” for “20 μL”

[3] = molecular target: CDK6/Cyclin D3 (Homo sapiens (Human), UniProt Q00534); assay: CDK6/Cyclin D3 ADP-Glo Kinase Assay; settings: read-out: CDK6/CyclinD3 IC50
Sequence of CDK6/Cyclin D3 (Q00534 whole entry): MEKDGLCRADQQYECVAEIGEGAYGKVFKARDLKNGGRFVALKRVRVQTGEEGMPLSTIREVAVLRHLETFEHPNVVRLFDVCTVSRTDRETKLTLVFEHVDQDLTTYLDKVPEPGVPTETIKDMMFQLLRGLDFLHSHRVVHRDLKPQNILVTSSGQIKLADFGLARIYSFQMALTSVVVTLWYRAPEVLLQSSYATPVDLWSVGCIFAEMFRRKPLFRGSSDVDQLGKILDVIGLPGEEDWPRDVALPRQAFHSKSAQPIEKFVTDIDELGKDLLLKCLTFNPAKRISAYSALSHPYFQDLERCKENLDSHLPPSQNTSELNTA
Sequence of CDK6/Cyclin D3 (P30281 whole entry partner): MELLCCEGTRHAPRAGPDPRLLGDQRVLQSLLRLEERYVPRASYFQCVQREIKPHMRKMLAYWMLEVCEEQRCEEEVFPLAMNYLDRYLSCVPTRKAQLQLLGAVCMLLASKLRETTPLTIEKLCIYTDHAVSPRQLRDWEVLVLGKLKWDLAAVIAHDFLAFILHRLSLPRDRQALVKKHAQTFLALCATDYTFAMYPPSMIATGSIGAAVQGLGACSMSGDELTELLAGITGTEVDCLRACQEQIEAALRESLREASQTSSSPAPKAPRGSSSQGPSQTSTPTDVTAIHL
Description: CDK6/Cyclin D3 ADP-Glo Kinase Assay
as §1, with “of the CDK6/Cyclin D3” for “of CDK1/Cyclin Bi”, “values) in the presence” for “values)”, “assay. CDK6/Cyclin D3” for “assay. CDK1/Cyclin B1”, “activity. CDK6/Cychin D3” for “activity. CDK1/Cyclin B1”, “from Carna.” for “from Carna (Cat 04-102).”, “a 90-minute” for “a 90 minute”

[4] = molecular target: CDK4/Cyclin D1 (Homo sapiens (Human), UniProt P11802); assay: CDK4/Cyclin D1 CHEF Assay; settings: AQT; read-out: CDK4/CyclinD1 AQT IC50
Sequence of CDK4/Cyclin D1 (P11802 whole entry, species assumed): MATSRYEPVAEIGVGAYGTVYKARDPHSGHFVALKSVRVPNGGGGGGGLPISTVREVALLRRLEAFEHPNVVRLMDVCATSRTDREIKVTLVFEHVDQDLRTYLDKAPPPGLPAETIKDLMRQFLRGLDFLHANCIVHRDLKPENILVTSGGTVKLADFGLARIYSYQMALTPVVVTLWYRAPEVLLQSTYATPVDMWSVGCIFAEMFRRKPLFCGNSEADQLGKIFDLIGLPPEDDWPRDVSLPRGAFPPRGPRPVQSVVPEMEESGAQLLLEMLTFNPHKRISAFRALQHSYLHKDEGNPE
Sequence of CDK4/Cyclin D1 (P24385 whole entry partner, species assumed): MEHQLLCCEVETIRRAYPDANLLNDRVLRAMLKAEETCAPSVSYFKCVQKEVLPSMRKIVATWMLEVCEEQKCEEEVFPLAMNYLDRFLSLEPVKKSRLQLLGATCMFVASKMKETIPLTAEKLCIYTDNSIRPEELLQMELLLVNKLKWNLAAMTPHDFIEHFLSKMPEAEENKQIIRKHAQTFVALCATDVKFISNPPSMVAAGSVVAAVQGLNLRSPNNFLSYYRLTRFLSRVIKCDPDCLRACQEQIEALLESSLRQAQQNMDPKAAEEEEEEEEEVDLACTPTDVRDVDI
Excerpt: CDK4/Cyclin D1 CHEF Assay
The purpose of CDK4/Cyclin Dl assay is to evaluate the inhibition (% inhibition and IC50 values) of small molecule inhibitors by using a Chelation-Enhance Fluorescence (CHEF) assay. In a CHEF assay, phosphorylation of a peptide substrate results in proportional increase in fluorescence. CHEF kinase assay use peptide substrates containing a synthetic alpha-amino acid with a side chain bearing an 8-hydroxyquinoline derivative (sulfonamido-oxide, Sox). Upon phosphorylation of a nearby serine, threonine or tyrosine and in the presence of Mg(II), the spectral properties of the Sox residue are altered, emitting 485 nm wavelength light when excited with a 360 nm wavelength light source. CDK4/Cyclin D1 catalyzes the phosphoryl transfer to the SOX-labeled substrate peptide AQT0258 from Assayquant Technologies. […] The reaction was initiated with the addition of substrate solution, following a 30-minute pre-incubation of enzyme and inhibitor at 22° C. in the reaction mix. Reactions were allowed to proceed for 3 hrs at 22° C., followed by fluorescence read of the reaction. The IC50 determinations were made from a plot of the fractional velocity as a function of inhibitor concentration fit to the 4 parameters IC50 equation.

Sequence of CDK1/Cyclin B1 (P06493 whole entry): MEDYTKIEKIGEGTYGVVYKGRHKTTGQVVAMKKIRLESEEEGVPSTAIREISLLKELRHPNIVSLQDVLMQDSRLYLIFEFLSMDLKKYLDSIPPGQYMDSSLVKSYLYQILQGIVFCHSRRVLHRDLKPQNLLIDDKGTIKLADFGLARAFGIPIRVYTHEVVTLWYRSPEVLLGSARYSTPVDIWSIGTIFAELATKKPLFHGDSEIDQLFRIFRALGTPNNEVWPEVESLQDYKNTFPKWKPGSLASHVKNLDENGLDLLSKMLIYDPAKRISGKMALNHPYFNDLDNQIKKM
Sequence of CDK1/Cyclin B1 (P14635 whole entry partner): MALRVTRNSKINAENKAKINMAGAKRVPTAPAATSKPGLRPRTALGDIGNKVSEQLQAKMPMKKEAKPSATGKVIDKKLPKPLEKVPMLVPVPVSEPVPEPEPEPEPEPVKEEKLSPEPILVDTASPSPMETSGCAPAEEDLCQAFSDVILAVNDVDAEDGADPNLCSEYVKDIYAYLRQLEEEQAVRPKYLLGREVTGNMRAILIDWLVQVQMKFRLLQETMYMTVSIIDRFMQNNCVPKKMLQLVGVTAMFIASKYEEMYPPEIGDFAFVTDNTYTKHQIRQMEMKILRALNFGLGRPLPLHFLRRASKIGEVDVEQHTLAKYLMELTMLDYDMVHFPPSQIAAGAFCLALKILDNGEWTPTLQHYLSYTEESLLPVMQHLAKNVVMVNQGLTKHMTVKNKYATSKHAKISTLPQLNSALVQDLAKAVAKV

Structure (SMILES)	IC50 [1] [nM]	IC50 [2] [nM]	IC50 [3] [nM]	IC50 [4] [nM]
Cc1cc2cnc(NC3CCN(S(=O)(=O)C4(C)CC4)CC3)nc2c(C2CC(C)(O)C2)n1 (stereo not drawn) [Compound 63, 1-methyl-3-(6-methyl-2-((1-((1-methylcyclopropyl)sulfonyl)piperidin-4-yl)amino)pyrido[3,4-d]pyrimidin-8-yl)cyclobutan-1-ol]	> 2000	200 to 500	> 2000	–
Cc1cc2cnc(NC3CCN(S(C)(=O)=O)CC3)nc2c(N2CC3(CCC(=O)NC3)C2)n1 [Compound 82, 2-(6-methyl-2-((1-(methylsulfonyl)piperidin-4-yl)amino)pyrido[3,4-d]pyrimidin-8-yl)-2,6-diazaspiro[3.5] nonan-7-one]	200 to 500	–	200 to 500	200 to 500
Cc1cc2cnc(Nc3cc4c(cc3F)CN(S(C)(=O)=O)C4)nc2c(N2CC3(CCNC3)C2)n1 [Compound 39, N-(6-fluoro-2-(methylsulfonyl)isoindolin-5-yl)-6-methyl-8-(2,6-diazaspiro [3.4]octan-2-yl)pyrido[3,4-d]pyrimidin-2-amine]	> 2000	–	> 2000	200 to 500
Cc1cc2cnc(N[C@H]3CC[C@H](CN(C)C)CC3)nc2c(N2CCC3(C2)CC3(F)F)n1 (stereo partly drawn) [Compound 40, 8-(1,1-difluoro-5-azaspiro[2.4]heptan-5-yl)-N-((1r,4r)-4-((dimethylamino)methyl)cyclohexyl)-6-methylpyrido[3,4-d]pyrimidin-2-amine]	> 2000	–	< 200	< 200
CS(=O)(=O)N1CCC(Nc2ncc3cc(C4CC4)nc(N4CC(F)(F)C5(CNC5)C4)c3n2)CC1 [Compound 60, 6-cyclopropyl-8-(8,8-difluoro-2,6-diazaspiro[3.4]octan-6-yl)-N-(1-(methylsulfonyl)piperidin-4-yl)pyrido[3,4-d]pyrimidin-2-amine]	< 200	–	< 200	< 200
Cc1cc2cnc(NC3CCN(S(=O)(=O)C4CC4)CC3)nc2c(N2CC3(C2)CC(C)(O)C3)n1 [Compound 78, 2-(2-((1-(cyclopropylsulfonyl)piperidin-4-yl)amino)-6-methylpyrido[3,4-d]pyrimidin-8-yl)-6-methyl-2-azaspiro[3.3]heptan-6-ol]	200 to 500	–	200 to 500	< 200
Cc1cc2cnc(NC3CCN(S(C)(=O)=O)CC3)nc2c(N2CC3(CCC(=O)N3)C2)n1 [Compound 77, 2-(6-methyl-2-((1-(methylsulfonyl)piperidin-4-yl)amino)pyrido[3,4-d]pyrimidin-8-yl)-2,5-diazaspiro[3.4] octan-6-one]	200 to 500	–	< 200	< 200
Cc1cc2cnc(NC3CCN(S(C)(=O)=O)CC3)nc2c(N2CCC3(CCC3(F)F)C2)n1 (stereo not drawn) [Compound 52, 8-(1,1-difluoro-6-azaspiro[3.4]octan-6-yl)-6-methyl-N-(1-(methylsulfonyl)piperidin-4-yl)pyrido[3,4-d]pyrimidin-2-amine]	< 200	–	< 200	< 200
COC1CC2(C1)CN(c1nc(C)cc3cnc(NC4CCN(S(=O)(=O)C5CC5)CC4)nc13)C2 [Compound 71, N-(1-(cyclopropylsulfonyl)piperidin-4-yl)-8-(6-methoxy-2-azaspiro[3.3]heptan-2-yl)-6-methylpyrido[3,4-d]pyrimidin-2-amine]	200 to 500	–	< 200	< 200
Cc1cc2cnc(NC3CCN(S(=O)(=O)C4CC4)CC3)nc2c(N2CC3(CCNCC3(F)F)C2)n1 [Compound 61, N-(1-(cyclopropylsulfonyl)piperidin-4-yl)-8-(5,5-difluoro-2,7-diazaspiro[3.5]nonan-2-yl)-6-methylpyrido[3,4-d]pyrimidin-2-amine]	< 200	–	< 200	< 200
Cc1cc2cnc(NC3CCN(S(C)(=O)=O)CC3)nc2c(N2CCC3(CC3)C2)n1 [Compound 54, 6-methyl-N-(1-(methylsulfonyl)piperidin-4-yl)-8-(5-azaspiro[2.4]heptan-5-yl)pyrido[3,4-d]pyrimidin-2-amine]	< 200	–	< 200	< 200

Other lines, results leading:

IC50 [1] [nM]	IC50 [2] [nM]	IC50 [3] [nM]	IC50 [4] [nM]	Structure (SMILES)
< 200	–	< 200	< 200	Cc1cc2cnc(NC3CCN(S(C)(=O)=O)CC3)nc2c(N2CC(O)(C(F)F)C2)n1 [Compound 91, 3-(difluoromethyl)-1-(6-methyl-2-((1-(methylsulfonyl)piperidin-4-yl)amino)pyrido[3,4-d]pyrimidin-8-yl)azetidin-3-ol]
200 to 500	–	< 200	< 200	Cc1cc2cnc(NC3CCN(S(C)(=O)=O)CC3)nc2c(C2CC(O)(C3CC3)C2)n1 (stereo not drawn) [Compound 88, 1-cyclopropyl-3-(6-methyl-2-((1-(methylsulfonyl)piperidin-4-yl)amino)pyrido[3,4-d]pyrimidin-8-yl)cyclobutan-1-ol]
< 200	–	< 200	< 200	Cc1cc2cnc(NC3CCN(S(=O)(=O)C4CC4)CC3)nc2c(N2CC(F)(F)C3(CN(C)C3)C2)n1 [Compound 102, N-(1-(cyclopropylsulfonyl)piperidin-4-yl)-8-(8,8-difluoro-2-methyl-2,6-diazaspiro[3.4]octan-6-yl)-6-methylpyrido[3,4-d]pyrimidin-2-amine]
200 to 500	–	< 200	< 200	Cc1cc2cnc(Nc3ccc(CS(C)(=O)=O)cc3)nc2c(N2CC(O)(C3CC3)C2)n1 [Compound 83, 3-cyclopropyl-1-(6-methyl-2-((4-((methylsulfonyl)methyl)phenyl)amino)pyrido[3,4-d]pyrimidin-8-yl)azetidin-3-ol]
< 200	–	< 200	< 200	Cc1cc2cnc(NC3CCN(S(=O)(=O)c4cnn(C)c4)CC3)nc2c(N2CC3(CCNCC3(F)F)C2)n1 [Compound 87, 8-(5,5-difluoro-2,7-diazaspiro[3.5]nonan-2-yl)-6-methyl-N-(1-((1-methyl-1H-pyrazol-4-yl)sulfonyl)piperidin-4-yl)pyrido[3,4-d]pyrimidin-2-amine]
< 200	–	< 200	< 200	Cc1cc2cnc(NC3CCN(S(C)(=O)=O)CC3)nc2c(N2CC(F)(F)C3(CNC3)C2)n1 [Compound 92, 8-(8,8-difluoro-2,6-diazaspiro[3.4]octan-6-yl)-6-methyl-N-(1-(methylsulfonyl)piperidin-4-yl)pyrido[3,4-d]pyrimidin-2-amine]
